The target in assay [1] is T1, Oxysterol-binding protein 2 [1-181,275-916] (Homo sapiens, UniProt Q969R2).
T1 construct: 1-181,275-916
T1 sequence (Q969R2 whole entry): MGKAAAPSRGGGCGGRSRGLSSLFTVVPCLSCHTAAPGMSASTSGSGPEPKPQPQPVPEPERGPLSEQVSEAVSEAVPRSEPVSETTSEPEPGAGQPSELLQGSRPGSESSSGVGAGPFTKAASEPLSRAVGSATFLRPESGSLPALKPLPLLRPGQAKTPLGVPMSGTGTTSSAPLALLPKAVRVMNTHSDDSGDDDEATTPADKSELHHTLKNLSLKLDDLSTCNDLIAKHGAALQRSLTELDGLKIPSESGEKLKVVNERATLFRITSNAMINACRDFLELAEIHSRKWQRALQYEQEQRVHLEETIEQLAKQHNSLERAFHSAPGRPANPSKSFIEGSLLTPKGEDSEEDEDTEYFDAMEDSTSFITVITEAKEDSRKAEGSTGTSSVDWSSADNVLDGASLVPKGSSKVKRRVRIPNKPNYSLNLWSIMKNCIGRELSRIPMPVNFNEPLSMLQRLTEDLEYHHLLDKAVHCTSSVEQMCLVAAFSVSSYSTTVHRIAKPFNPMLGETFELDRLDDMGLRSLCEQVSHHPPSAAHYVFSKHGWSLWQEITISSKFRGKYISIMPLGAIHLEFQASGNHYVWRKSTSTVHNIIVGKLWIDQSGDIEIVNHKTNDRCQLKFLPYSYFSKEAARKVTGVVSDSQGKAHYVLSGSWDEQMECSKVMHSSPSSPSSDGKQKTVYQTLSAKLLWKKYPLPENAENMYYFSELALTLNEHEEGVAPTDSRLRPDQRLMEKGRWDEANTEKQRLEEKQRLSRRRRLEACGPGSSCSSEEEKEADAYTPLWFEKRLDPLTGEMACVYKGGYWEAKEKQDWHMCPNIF
Put plainly: Sterol-Binding Assay. The settings on record: pH 7.4; 20 °C. On the procedure:
(§1) Recombinant OSBP, ORP4L, or ORP4S (8 pmol) was incubated in 75 μl of binding buffer (10 mM HEPES (pH 7.4), 150 mM KCl, 2% (w/v) polyvinyl alcohol) containing radioactive sterols (with or without a 40-fold excess of unlabeled sterol). After 2 h at 20 °C, a 25-μl slurry of Talon resin (1:1, v/v) was added and mixed for 10 min. Talon resin and bound protein were washed three times with 300 μl of 10 mM HEPES (pH 7.4) and 150 mM KCl and sedimented by brief centrifugation. Bound proteins were eluted from the resin with 150 mM imidazole (pH 7.4), the resin was sedimented by centrifugation, and radioactivity bound to protein in the supernatant was measured by liquid scintillation counting.

Assay [2] concerns the target T2, Oxysterol-binding protein 2 (Homo sapiens, UniProt Q969R2).
T2 sequence (Q969R2 whole entry): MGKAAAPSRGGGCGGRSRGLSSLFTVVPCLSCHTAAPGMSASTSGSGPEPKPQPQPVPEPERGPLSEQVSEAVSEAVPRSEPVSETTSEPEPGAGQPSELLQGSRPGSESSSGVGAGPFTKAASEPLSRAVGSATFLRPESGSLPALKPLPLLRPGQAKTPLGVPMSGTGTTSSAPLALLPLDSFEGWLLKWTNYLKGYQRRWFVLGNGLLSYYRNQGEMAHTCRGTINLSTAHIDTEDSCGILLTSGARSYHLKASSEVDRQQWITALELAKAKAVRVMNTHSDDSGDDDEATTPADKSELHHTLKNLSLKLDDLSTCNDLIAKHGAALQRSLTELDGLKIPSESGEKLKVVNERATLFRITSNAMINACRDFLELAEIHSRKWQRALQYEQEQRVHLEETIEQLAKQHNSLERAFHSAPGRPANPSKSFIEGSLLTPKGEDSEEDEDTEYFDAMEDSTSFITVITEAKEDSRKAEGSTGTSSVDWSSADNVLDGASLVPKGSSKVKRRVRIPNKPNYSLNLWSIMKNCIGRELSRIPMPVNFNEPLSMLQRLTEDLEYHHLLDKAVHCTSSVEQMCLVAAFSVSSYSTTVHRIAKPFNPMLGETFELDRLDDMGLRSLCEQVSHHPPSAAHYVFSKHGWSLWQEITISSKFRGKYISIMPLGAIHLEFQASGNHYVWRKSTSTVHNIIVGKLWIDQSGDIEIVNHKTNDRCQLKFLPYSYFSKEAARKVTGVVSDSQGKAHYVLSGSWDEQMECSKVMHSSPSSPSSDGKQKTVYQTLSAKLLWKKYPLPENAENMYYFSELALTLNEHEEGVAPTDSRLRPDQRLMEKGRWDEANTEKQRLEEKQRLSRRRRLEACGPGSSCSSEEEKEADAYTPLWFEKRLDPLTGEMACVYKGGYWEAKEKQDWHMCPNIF
Put plainly: Sterol-Binding Assay. The following applies: pH 7.4; 20 °C. On the procedure: as §1

On to `C[C@H](CCCC(C)(C)O)[C@H]1CC[C@H]2[C@@H]3CC=C4C[C@@H](O)CC[C@]4(C)[C@H]3CC[C@]12C` [(1S,2R,5S,10S,11S,14R,15R)-14-[(2R)-6-hydroxy-6-methylheptan-2-yl]-2,15-dimethyltetracyclo[8.7.0.0^{2,7}.0^{11,15}]heptadec-7-en-5-ol], for which the values for the equilibrium dissociation constant (Kd) in assay [1] and in assay [2] were 23 nM and 17 nM, respectively.
In the case of `CC(C)CCC[C@@H](C)[C@H]1CC[C@H]2[C@@H]3CC=C4C[C@@H](O)CC[C@]4(C)[C@H]3CC[C@]12C` [(1S,2R,5S,10S,11S,14R,15R)-2,15-dimethyl-14-[(2R)-6-methylheptan-2-yl]tetracyclo[8.7.0.0^{2,7}.0^{11,15}]heptadec-7-en-5-ol], the equilibrium dissociation constant (Kd) in assay [1] worked out at 60 nM; in assay [2], 68 nM.

Usually Kd stands for the concentration at which binding is half-saturated. A low value points to higher affinity.
